System: 994946-033-R-J1-PDC complex spheroid viability
Test: Anticancer human tumor 994946-033-R-J1-PDC patient-derived melanoma cell line growth inhibition [POLQ]
Details: for IC50: curve of first compound; for viability, T/C: stronger effect = lower value
In short: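 Patient-derived tumour cells were co-cultured with HUVEC and mesenchymal stem cells as multicellular spheroids at 37 °C. They were treated with POLQ inhibitors (novobiocin, ART-558, RP6685) alone or combined with other agents. Top concentrations were at or near clinical Cmax (otherwise 10 microM; SN-38 at 1 microM), decreasing in half-log steps.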

[1] = second compound 0.0316 µM, first compound 0.0316 µM
[2] = second compound 0.0316 µM, first compound 0.1 µM
[3] = second compound 0.0316 µM, first compound 0.316 µM
[4] = second compound 0.0316 µM, first compound 1 µM
[5] = second compound 0.1 µM, first compound 0.0316 µM
[6] = second compound 0.1 µM, first compound 0.1 µM
[7] = second compound 0.1 µM, first compound 0.316 µM
[8] = second compound 0.1 µM, first compound 1 µM
[9] = second compound 0.316 µM, first compound 0.0316 µM
[10] = second compound 0.316 µM, first compound 0.1 µM
[11] = second compound 0.316 µM, first compound 0.316 µM
[12] = second compound 0.316 µM, first compound 1 µM
[13] = second compound 1 µM, first compound 0.0316 µM
[14] = second compound 1 µM, first compound 0.1 µM
[15] = second compound 1 µM, first compound 0.316 µM
[16] = second compound 1 µM, first compound 1 µM
[17] = second compound 3.16 µM, first compound 0.0316 µM
[18] = second compound 3.16 µM, first compound 0.1 µM
[19] = second compound 3.16 µM, first compound 0.316 µM
[20] = second compound 3.16 µM, first compound 1 µM
[21] = second compound 10 µM, first compound 0.0316 µM
[22] = second compound 10 µM, first compound 0.1 µM
[23] = second compound 10 µM, first compound 0.316 µM
[24] = second compound 10 µM, first compound 1 µM
[25] = second compound 0.0316 µM, first compound 3.16 µM
[26] = second compound 0.0316 µM, first compound 10 µM
[27] = second compound 0.1 µM, first compound 3.16 µM
[28] = second compound 0.1 µM, first compound 10 µM
[29] = second compound 0.316 µM, first compound 3.16 µM
[30] = second compound 0.316 µM, first compound 10 µM
[31] = second compound 1 µM, first compound 3.16 µM
[32] = second compound 1 µM, first compound 10 µM
[33] = second compound 3.16 µM, first compound 3.16 µM
[34] = second compound 3.16 µM, first compound 10 µM
[35] = second compound 10 µM, first compound 3.16 µM
[36] = second compound 10 µM, first compound 10 µM
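Further: spheroids exposed to drugs for 7 days.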
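Wherever viability, T/C is given: 100% = DMSO vehicle treated spheroids.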

C=CCn1c(=O)c2cnc(Nc3ccc(N4CCN(C)CC4)cc3)nc2n1-c1cccc(C(C)(C)O)n1 + Nc1ccc(C#CCN(C(=O)Cc2ncc(C(F)(F)F)cc2C(F)(F)F)c2ccc(F)cc2)nn1
IC50 (second compound 0.0316 µM): 837 nM | IC50 (second compound 0.1 µM): 444 nM | IC50 (second compound 0.316 µM): 397 nM | IC50 (second compound 1 µM): 780 nM | IC50 (second compound 3.16 µM): 712 nM | IC50 (second compound 10 µM): 643 nM | viability, T/C (second compound 0.0316 µM, first compound 0.00316 µM): 70.3% | viability, T/C (second compound 0.0316 µM, first compound 0.01 µM): 122% | viability, T/C [1]: 80% | viability, T/C [2]: 95.6% | viability, T/C [3]: 91.8% | viability, T/C [4]: 42.4% | viability, T/C (second compound 0.1 µM, first compound 0.00316 µM): 81% | viability, T/C (second compound 0.1 µM, first compound 0.01 µM): 107% | viability, T/C [5]: 97.8% | viability, T/C [6]: 103% | viability, T/C [7]: 59.2% | viability, T/C [8]: 28% | viability, T/C (second compound 0.316 µM, first compound 0.00316 µM): 101% | viability, T/C (second compound 0.316 µM, first compound 0.01 µM): 124% | viability, T/C [9]: 105% | viability, T/C [10]: 81.7% | viability, T/C [11]: 60.2% | viability, T/C [12]: 20.6% | viability, T/C (second compound 1 µM, first compound 0.00316 µM): 123% | viability, T/C (second compound 1 µM, first compound 0.01 µM): 100% | viability, T/C [13]: 147% | viability, T/C [14]: 109% | viability, T/C [15]: 100% | viability, T/C [16]: 36.2% | viability, T/C (second compound 3.16 µM, first compound 0.00316 µM): 109% | viability, T/C (second compound 3.16 µM, first compound 0.01 µM): 105% | viability, T/C [17]: 120% | viability, T/C [18]: 85% | viability, T/C [19]: 84.9% | viability, T/C [20]: 36.4% | viability, T/C (second compound 10 µM, first compound 0.00316 µM): 106% | viability, T/C (second compound 10 µM, first compound 0.01 µM): 82.5% | viability, T/C [21]: 94.8% | viability, T/C [22]: 95.4% | viability, T/C [23]: 67.4% | viability, T/C [24]: 39.1%

CNCc1ccc(-c2[nH]c3cc(F)cc4c3c2CCNC4=O)cc1 + Nc1ccc(C#CCN(C(=O)Cc2ncc(C(F)(F)F)cc2C(F)(F)F)c2ccc(F)cc2)nn1
IC50 (second compound 0.0316 µM): > 10000 nM | IC50 (second compound 0.1 µM): > 10000 nM | IC50 (second compound 0.316 µM): > 10000 nM | IC50 (second compound 1 µM): > 10000 nM | IC50 (second compound 3.16 µM): > 10000 nM | IC50 (second compound 10 µM): > 10000 nM | viability, T/C [1]: 97.4% | viability, T/C [2]: 84.1% | viability, T/C [3]: 84% | viability, T/C [4]: 85.3% | viability, T/C [25]: 94.5% | viability, T/C [26]: 79% | viability, T/C [5]: 77.9% | viability, T/C [6]: 83.1% | viability, T/C [7]: 99.7% | viability, T/C [8]: 61.5% | viability, T/C [27]: 95.8% | viability, T/C [28]: 70.6% | viability, T/C [9]: 81.7% | viability, T/C [10]: 86.4% | viability, T/C [11]: 90% | viability, T/C [12]: 68.8% | viability, T/C [29]: 77.2% | viability, T/C [30]: 69.1% | viability, T/C [13]: 73.4% | viability, T/C [14]: 69.2% | viability, T/C [15]: 107% | viability, T/C [16]: 77.9% | viability, T/C [31]: 103% | viability, T/C [32]: 63.1% | viability, T/C [17]: 105% | viability, T/C [18]: 105% | viability, T/C [19]: 85% | viability, T/C [20]: 107% | viability, T/C [33]: 74.2% | viability, T/C [34]: 77.5% | viability, T/C [21]: 72% | viability, T/C [22]: 74.2% | viability, T/C [23]: 88.7% | viability, T/C [24]: 113% | viability, T/C [35]: 96% | viability, T/C [36]: 78.3%

Nc1ccn(C2OC(CO)C(O)C2(F)F)c(=O)n1 (stereo not drawn) + Nc1ccc(C#CCN(C(=O)Cc2ncc(C(F)(F)F)cc2C(F)(F)F)c2ccc(F)cc2)nn1
IC50 (second compound 0.0316 µM): < 31.6 nM | IC50 (second compound 0.1 µM): < 31.6 nM | IC50 (second compound 0.316 µM): < 31.6 nM | IC50 (second compound 1 µM): < 31.6 nM | IC50 (second compound 3.16 µM): 35.5 nM | IC50 (second compound 10 µM): 120 nM | viability, T/C [1]: 19.8% | viability, T/C [2]: 9.8% | viability, T/C [3]: 13.9% | viability, T/C [4]: 6.8% | viability, T/C [25]: 9.12% | viability, T/C [26]: 4.73% | viability, T/C [5]: 13.4% | viability, T/C [6]: 6.85% | viability, T/C [7]: 7.22% | viability, T/C [8]: 8.61% | viability, T/C [27]: 6.71% | viability, T/C [28]: 2.46% | viability, T/C [9]: 26.9% | viability, T/C [10]: 10.2% | viability, T/C [11]: 6.41% | viability, T/C [12]: 6.86% | viability, T/C [29]: 5.84% | viability, T/C [30]: 3.65% | viability, T/C [13]: 49.5% | viability, T/C [14]: 11.8% | viability, T/C [15]: 7.84% | viability, T/C [16]: 6.62% | viability, T/C [31]: 5.64% | viability, T/C [32]: 2.7% | viability, T/C [17]: 53.2% | viability, T/C [18]: 22.4% | viability, T/C [19]: 8.85% | viability, T/C [20]: 9.68% | viability, T/C [33]: 8.92% | viability, T/C [34]: 3.34% | viability, T/C [21]: 75.5% | viability, T/C [22]: 56.2% | viability, T/C [23]: 17.5% | viability, T/C [24]: 7.83% | viability, T/C [35]: 11.2% | viability, T/C [36]: 6.31%

O=C(c1cc(Cc2n[nH]c(=O)c3ccccc23)ccc1F)N1CCN(C(=O)C2CC2)CC1 + Nc1ccc(C#CCN(C(=O)Cc2ncc(C(F)(F)F)cc2C(F)(F)F)c2ccc(F)cc2)nn1
IC50 (second compound 0.0316 µM): 6710 nM | IC50 (second compound 0.1 µM): 6450 nM | IC50 (second compound 0.316 µM): 4090 nM | IC50 (second compound 1 µM): 5260 nM | IC50 (second compound 3.16 µM): 3820 nM | IC50 (second compound 10 µM): 7000 nM | viability, T/C [1]: 116% | viability, T/C [2]: 88.8% | viability, T/C [3]: 101% | viability, T/C [4]: 72.6% | viability, T/C [25]: 76.6% | viability, T/C [26]: 37.3% | viability, T/C [5]: 61.7% | viability, T/C [6]: 113% | viability, T/C [7]: 70.5% | viability, T/C [8]: 78.6% | viability, T/C [27]: 83.5% | viability, T/C [28]: 30.6% | viability, T/C [9]: 101% | viability, T/C [10]: 84.9% | viability, T/C [11]: 84% | viability, T/C [12]: 55.8% | viability, T/C [29]: 70.8% | viability, T/C [30]: 29.6% | viability, T/C [13]: 78.9% | viability, T/C [14]: 111% | viability, T/C [15]: 66% | viability, T/C [16]: 92.8% | viability, T/C [31]: 55.9% | viability, T/C [32]: 42.6% | viability, T/C [17]: 94.8% | viability, T/C [18]: 80.3% | viability, T/C [19]: 77.8% | viability, T/C [20]: 58.8% | viability, T/C [33]: 57.9% | viability, T/C [34]: 37.1% | viability, T/C [21]: 66.4% | viability, T/C [22]: 87.3% | viability, T/C [23]: 70.3% | viability, T/C [24]: 92.3% | viability, T/C [35]: 80.1% | viability, T/C [36]: 36.8%

Source: PubChem BioAssay AID1963827 (Molecular Pharmacology Branch, DTP, NCI, 2024)
